In US7884067B2, “Peptides derived from cadherin and methods of use thereof” (Mount Sinai School of Medicine of New York University, priority 2001, dated 2011):

Test system: E-cadherin
Test: E-cadherin cleavage in staurosporine-treated (apoptotic) A431 cells (Western blot)
Format: cell-based, human
Procedure: Cell Cultures and transfections. Cells were grown in Dulbecco's Modified Eagle Medium (DMEM) plus 10% fetal bovine serum, penicillin and streptomycin in 5% CO2 at 37° C. […] A431 cells were from American Type Culture Collection. […] A431D cells stably transfected with wild-type or GGG759-761AAA mutant E-cadherin were provided by Dr. A. B. Reynolds.
Immunoprecipitations (IPs), immunoblotting, immunofluorescence and confocal microscopy. For WB analysis of cell extracts, cells were washed with PBS and then solubilized in RIPA buffer. For IPs cells were solubilized in Hepes buffer (25 mM Hepes [pH 7.4], 150 mM NaCl, 1× Complete protease inhibitor cocktail, Roche) containing 1% digitonin (IPs with I-R222 and PI-R222 antibodies) or 1% Triton X-100 (IPs with β-catenin and desmoglein antibodies). Following centrifugation at 17,000×g for 10 min, supernatants (1 mg protein) were pre-cleared with protein A- or protein G-agarose (Pierce) for 2 hours. Supernatants were then incubated with antibodies overnight at 4° C. and treated for 2 hours with protein A-agarose (polyclonal antibodies) or with protein G-agarose (monoclonal antibodies). IPs were washed with Hepes buffer containing either 1% digitonin or 1% Triton X-100 and analyzed by SDS-PAGE. Immunofluorescence and confocal microscopy was performed as described by Georgakopoulos et al., (1999). Briefly, cells were plated on 22×22 mm collagen-coated glass coverslips, fixed in cold methanol for 10 min at −20° C. Following washing in TBS (25 mM Tris-HCl [pH 7.4], 150 mM NaCl), cells were treated with 10% goat serum in SuperBlock (Pierce) for 1 hour, incubated overnight with primary antibody (1:100), washed in TBS and then were incubated with species specific Alexa Fluor™ secondary antibody conjugates (Molecular Probes). Cells were washed with TBS, mounted with Prolong antifade kit (Molecular Probes), and photographed on a Leica confocal laser scanning microscope.
Conditional media (20 μl) from A431 cells cultured in the absence or presence of […] and treated with SDS as above were probed on Western blots with anti-E-cadherin ectodomain antibody H108.

`CC(C)C[C@H](NC(=O)[C@H](Cc1ccccc1)C[C@@H](O)[C@H](Cc1ccccc1)NC(=O)OC(C)(C)C)C(=O)N[C@@H](Cc1ccccc1)C(N)=O` [L-685,458] was tested, and the “production of the 33 kDa cadherin fragment (E-Cad/CTF2)” value (30 minutes preincubation with L-685,458 (0.5 μM), then STS 6 hours) was “completely blocked” and the “E-Cad/CTF1 level on inhibition of E-Cad/CTF2” value (L-685,458 (0.5 μM), STS 6 hours) was “increase in E-Cad/CTF1”.
